Test results published in patent US20120148633A1, “BINARY AND TERTIARY GALVANIC PARTICULATES AND METHODS OF MANUFACTURING AND USE THEREOF” (priority 2009, published 2012).

Key:
[1] = test system: acetic acid-induced writhes; assay: Acetic acid-induced writhing, oral administration; type: in vivo, Albino male CD-1 mice; details: 100 mg/kg orally 1 hour prior to i.p. acetic acid
Method: In this example, galvanic particulates produced by the process of Example 1 were evaluated for analgesic activity. Aspirin, a non-steroidal analgesic agent, which is known to show efficacy in this model, was included as a reference compound. Albino male CD-1 mice, weighing 24±2 g were used in the study. Galvanic particulates or aspirin were prepared in deionized water (DI Water) and were administered orally at a concentration of 100 mg/kg to mice 1 hour prior to injection of acetic acid. A […] of a 0.5% acetic acid solution was injected intraperitoneally, and the number of acetic acid-induced writhes were counted by an observer blinded to the treatment groups. A 50% decrease in the number of writhes indicated analgesic activity.

[2] = test system: oxazolone-induced skin inflammation; assay: Murine model of contact hypersensitivity (oxazolone ear inflammation), topical; type: in vivo, Albino male CD-1 mice; details: 1 mg/ml, 20 μl to left ear 1 hour after oxazolone challenge; ear biopsy weight at 24 hours

## CC(=O)Oc1ccccc1C(=O)O [Aspirin]
[1]
  Analgesic Effectiveness (Percent Reduction Writhes): 56%
[1]; vehicle 11.4 ± 6.1
  Total Number of Writhes (Mean ± Std Dev): 5.0 ± 3.6

## C[C@]12CCC(=O)C=C1CC[C@@H]1[C@@H]2[C@@H](O)C[C@@]2(C)[C@H]1CC[C@]2(O)C(=O)CO [Hydrocortisone]
[2]
  Percent Inhibition of Skin Inflammation: 70.3% ± 6.6%
